Literature values as cited in paper PMC8448535 (Bioorganic & Medicinal Chemistry, 2021).
Counter-ions that a name gives are not always drawn.

How the values were obtained:
furin = details: database screening of pre-existing drugs
ACE2 = details: read-out: activity (inhibitory effect against ACE2)
[1] = test system: recombinant-human ACE2 (rhACE2); details: pIC50 of IC50 in mol/L
[2] = test system: recombinant-human ACE (rhACE); details: pIC50 of IC50 in mol/L
cell viability = details: in words
influenza virus H3N2 = details: H3N2, 10 μM, at 24 h, compared to control

CN(Cc1cc(Br)cc(Br)c1N)C1CCCCC1 [bromhexine]
activity towards TMPRSS2 (TMPRSS2): good activity

Nc1nc(N)c2nc(CNc3ccc(C(=O)N[C@@H](CCC(=O)O)C(=O)O)cc3)cnc2n1 [aminopterin]
affinity for furin (furin): good affinity

CN(Cc1cnc2nc(N)nc(N)c2n1)c1ccc(C(=O)N[C@@H](CCC(=O)O)C(=O)O)cc1 [methotrexate]
affinity for furin (furin): good affinity

NCCNCCN1CC1 [N-(2-aminoethyl)-1-aziridineethanamine]
IC50 (ACE2): 57 ± 7 µM

CC(C)CC(N[C@@H](Cc1cncn1Cc1cc(Cl)cc(Cl)c1)C(=O)O)C(=O)O (stereo partly drawn) [MLN-4760-S/R]
pIC50 [1]: 8.5 ± 0.1 mol/L | pIC50 [2]: 4.4 ± 0.2 mol/L

COc1cc(C2Oc3cc([C@H]4Oc5cc(O)cc(O)c5C(=O)[C@@H]4O)ccc3OC2CO)ccc1O (stereo partly drawn) [silybin]
affinity for furin (furin): good affinity

CC(C)C[C@@H](N[C@@H](Cc1cncn1Cc1cc(Cl)cc(Cl)c1)C(=O)O)C(=O)O [MLN-4760-R]
pIC50 [1]: 8.9 ± 0.1 mol/L | pIC50 [2]: 4.4 ± 0.3 mol/L

angiotensin-III (RVYIHPF; Angiotensin 3; UniProt P01019 26-32, looked up) [Ang-III]
vasopressor efficacy relative to Ang-II: 40%

CN(C)C(=O)COC(=O)Cc1ccc(OC(=O)c2ccc(NC(=N)N)cc2)cc1 [camostat mesylate]
block of SARS-CoV from entering cells (SARS-CoV): 65%

N=C(N)c1ccc(/N=N/Nc2ccc(C(=N)N)cc2)cc1 [diminazene]
affinity for furin (furin): good affinity

N=C(N)c1cccc(C[C@H](NS(=O)(=O)c2cccc(-c3ccc(Cl)cc3Cl)c2)C(=O)N2CCC(CCN)CC2)c1 [compound 92]
effect on cell viability (cell viability): little to no effect | decrease in virus titres (influenza virus H3N2): 100 fold

N=C(N)c1cccc(C[C@H](NS(=O)(=O)c2cccc(-c3ccc(Cl)cc3Cl)c2)C(=O)N2CCC(NC(=O)NC3CCCCC3)CC2)c1 [compound 114]
effect on cell viability (cell viability): little to no effect
